# Like-named read-outs stand apart in the source and are kept apart here.
# Experiments:
# androgen receptor (AR) = molecular target: T1, androgen receptor (AR) (Homo sapiens, UniProt P10275, T878A); test: Degradation activity on androgen receptor in LNCaP cells (AR ELISA); assay type: cell-based; conditions: for Dmax: read-out: Max (maximum AR degradation rate)
# T1 construct: host or cells: LNCaP human prostate cancer cells
# T1 sequence (P10275 1-920 T878A): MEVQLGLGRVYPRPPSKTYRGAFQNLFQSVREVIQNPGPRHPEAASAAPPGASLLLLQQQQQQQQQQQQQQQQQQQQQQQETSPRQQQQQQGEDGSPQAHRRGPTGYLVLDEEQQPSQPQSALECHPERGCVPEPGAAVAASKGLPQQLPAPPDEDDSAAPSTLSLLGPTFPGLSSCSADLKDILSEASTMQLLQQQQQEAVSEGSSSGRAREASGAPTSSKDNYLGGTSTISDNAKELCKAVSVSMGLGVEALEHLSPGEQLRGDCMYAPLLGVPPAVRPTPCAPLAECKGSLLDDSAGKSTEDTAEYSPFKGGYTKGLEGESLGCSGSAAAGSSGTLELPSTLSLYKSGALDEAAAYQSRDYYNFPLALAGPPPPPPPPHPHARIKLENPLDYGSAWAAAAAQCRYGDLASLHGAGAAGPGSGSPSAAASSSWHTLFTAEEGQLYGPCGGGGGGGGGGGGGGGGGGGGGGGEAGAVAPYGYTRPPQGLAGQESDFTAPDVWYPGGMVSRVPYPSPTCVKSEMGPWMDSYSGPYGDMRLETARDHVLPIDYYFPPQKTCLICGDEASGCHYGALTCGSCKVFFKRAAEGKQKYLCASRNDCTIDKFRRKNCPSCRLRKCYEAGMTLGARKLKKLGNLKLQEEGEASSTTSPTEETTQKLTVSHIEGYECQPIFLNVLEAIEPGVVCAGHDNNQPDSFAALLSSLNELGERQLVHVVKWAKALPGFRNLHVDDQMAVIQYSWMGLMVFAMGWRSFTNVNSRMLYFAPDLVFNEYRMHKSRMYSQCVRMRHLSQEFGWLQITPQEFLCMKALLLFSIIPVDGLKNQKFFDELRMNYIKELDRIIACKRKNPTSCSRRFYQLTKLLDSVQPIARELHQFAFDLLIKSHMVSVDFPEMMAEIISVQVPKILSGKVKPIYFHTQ
# Method: The plate was incubated in a 37° C., 5% CO2 cell incubator for three days. […] A blank control cell well containing 0.5% DMSO was set up. The plate was incubated in a 37° C., 5% CO2 cell incubator for 24 hours. […] The lysate was well mixed by pipetting up and down and then centrifuged at 4000 rpm at 4° C. for 10 minutes. […] The plate was sealed and incubated in a 37° C. incubator for 1 hour. […] The plate was sealed and then incubated in a 37° C. incubator for 30 minutes.
# LNCaP cells = test: Inhibition of LNCaP proliferation (CellTiter-Glo); assay type: cell-based; conditions: Homo sapiens, 144 h, 0.1 nM R1881, six days; for Emax: read-out: Max (maximum proliferation inhibition rate)
# Method: The plate was incubated in a 37° C., 5% CO2 cell incubator for three days. […] A blank control cell well containing 0.5% DMSO and a cell-free vehicle control well were set up. The plate was incubated in a 37° C., 5% CO2 cell incubator for six days.
# [1] = Pharmacokinetic evaluation in SD rats; conditions: both sexes, rat, in vivo, po, i.g., 2.0 mg/kg; for Vd/F: read-out: Apparent distribution volume Vz/F; for AUC(0-t): read-out: Area under curve AUC0-t; for CL/F: read-out: Clearance rate CL/F; for half-life: read-out: Half-life T½ (converted); for Cmax: read-out: Plasma concentration Cmax
# Method: SD rats were used as test animals.
# 32 SD rats, provided by Vital River Laboratory Animal Co., Ltd., with an equal number of males and females, were evenly divided into 8 groups. The animals were fasted overnight and then intragastrically dosed.
# The dose administered was 2.0 mg/kg, and the volume was 10.0 mL/kg.
# The procedure starting from the blood collection to the centrifugation was performed under ice-bath conditions. Access to food was given 2 hours after administration.
# [2] = 0.1 nM R1881, 24 hours, read-out: LNCaP DC50
# [3] = read-out: LNCaP DC50, 0.1 nM R1881, 24 hours
SMILES,DC50 (androgen receptor (AR); [2]),"Dmax (androgen receptor (AR); 0.1 nM R1881, 24 hours)",IC50 (LNCaP cells),Emax (LNCaP cells),Vd/F [1],AUC(0-t) [1],CL/F [1],half-life [1],Cmax [1],DC50 (androgen receptor (AR); [3])
"C[C@H]1CC2(CCN(c3ccc(C(=O)N4CCC5(CC4)CC(N4CCN(c6ccc(N7CCC(=O)NC7=O)cc6)CC4)C5)cc3)CC2)CN1c1ccc(C#N)c(Cl)c1 [Example 28, (S)-2-Chloro-4-(8-(4-(2-(4-(4-(2,4-dioxotetrahydropyrimidin-1(2H)-yl)phenyl)piperazin-1-yl)-7-azaspiro[3.5]nonane-7-carbonyl)phenyl)-3-methyl-2,8-diazaspiro[4.5]decan-2-yl)benzonitrile]",5.8 nM,97%,17 nM,61%,66.6 L/kg,315 ng·h/mL,108 mL/min/kg,7.17 h,25.5 ng/mL,–
"C[C@H]1CC2(CCN(c3ccc(C(=O)N4CCC(CN5CCN(c6cccc(NC7CCC(=O)NC7=O)c6)CC5)CC4)nc3)CC2)CN1c1ccc(C#N)c(Cl)c1 (stereo partly drawn) [Example 12, 2-Chloro-4-((3S)-8-(6-(4-((4-(3-((2,6-dioxopiperidin-3-yl)amino)phenyl)piperazin-1-yl)methyl)piperidine-1-carbonyl)pyridin-3-yl)-3-methyl-2,8-diazaspiro[4.5]decan-2-yl)benzonitrile]",1.3 nM,97%,48 nM,73%,63.1 L/kg,304 ng·h/mL,139 mL/min/kg,5.19 h,37.4 ng/mL,–
"C[C@H]1CC2(CCN(c3ccc(C(=O)N4CCN(CC(=O)Nc5cccc(NC6CCC(=O)NC6=O)c5)CC4)cc3)CC2)CN1c1ccc(C#N)c(Cl)c1 (stereo partly drawn) [Example 42, 2-(4-(4-((S)-2-(3-Chloro-4-cyanophenyl)-3-methyl-2,8-diazaspiro[4.5]decan-8-yl)benzoyl)piperazin-1-yl)-N-(3-((2,6-dioxopiperidin-3-yl)amino)phenyl)acetamide]",4.2 nM,90%,39 nM,50%,–,–,–,–,–,–
"C[C@H]1CC2(CCN(c3ccc(C(=O)N4CCC(CN5CCN(c6cc(NC7CCC(=O)NC7=O)ccc6F)CC5)CC4)cc3)CC2)CN1c1ccc(C#N)c(Cl)c1 (stereo partly drawn) [Example 23, 2-Chloro-4-((3S)-8-(4-(4-((4-(5-((2,6-dioxopiperidin-3-yl)amino)-2-fluorophenyl)piperazin-1-yl)methyl)piperidine-1-carbonyl)phenyl)-3-methyl-2,8-diazaspiro[4.5]decan-2-yl)benzonitrile]",6.1 nM,96%,41 nM,76%,26.3 L/kg,703 ng·h/mL,51.2 mL/min/kg,5.93 h,81.6 ng/mL,–
"C[C@H]1CC2(CCN(c3cnc(C(=O)N4CCC(CN5CCN(c6cccc(NC7CCC(=O)NC7=O)c6)CC5)CC4)cn3)CC2)CN1c1ccc(C#N)c(Cl)c1 (stereo partly drawn) [Example 17, 2-Chloro-4-((3S)-8-(5-(4-((4-(3-((2,6-dioxopiperidin-3-yl)amino)phenyl)piperazin-1-yl)methyl)piperidine-1-carbonyl)pyrazin-2-yl)-3-methyl-2,8-diazaspiro[4.5]decan-2-yl)benzonitrile]",–,97%,112 nM,74%,–,–,–,–,–,3 nM
"C[C@H]1CC2(CCN(c3ccc(C(=O)N4CCC(CN5CCN(c6cccc(NC7CCC(=O)NC7=O)c6)CC5)CC4)cc3)CC2)CN1c1ccc(C#N)c(C(F)(F)F)c1 (stereo partly drawn) [Example 41, 4-((3S)-8-(4-(4-((4-(3-((2,6-Dioxopiperidin-3-yl)amino)phenyl)piperazin-1-yl)methyl)piperidine-1-carbonyl)phenyl)-3-methyl-2,8-diazaspiro[4.5]decan-2-yl)-2-(trifluoromethyl)benzonitrile]",17.1 nM,96%,98 nM,56%,–,–,–,–,–,–
"C[C@H]1CC2(CCN(c3ccc(C(=O)N4CCC5(CC4)CC(N4CCN(c6ccc(N7CCC(=O)NC7=O)cc6)CC4)C5)cc3F)CC2)CN1c1ccc(C#N)c(Cl)c1 [Example 30, (S)-2-Chloro-4-(8-(4-(2-(4-(4-(2,4-dioxotetrahydropyrimidin-1(2H)-yl)phenyl)piperazin-1-yl)-7-azaspiro[3.5]nonane-7-carbonyl)-2-fluorophenyl)-3-methyl-2,8-diazaspiro[4.5]decan-2-yl)benzonitrile]",4.2 nM,96%,7.2 nM,52%,–,–,–,–,–,–
"C[C@H]1CC2(CCN(c3ccc(C(=O)N4CCC(N5CC(N6CCN(c7ccc(N8CCC(=O)NC8=O)cc7)CC6)C5)CC4)cc3)CC2)CN1c1ccc(C#N)c(Cl)c1 [Example 7, (S)-2-Chloro-4-(8-(4-(4-(3-(4-(4-(2,4-dioxotetrahydropyrimidin-1(2H)-yl)phenyl)piperazin-1-yl)azetidin-1-yl)piperidine-1-carbonyl)phenyl)-3-methyl-2,8-diazaspiro[4.5]decan-2-yl)benzonitrile]",1 nM,93%,4.6 nM,53%,–,–,–,–,–,–
"C[C@H]1CC2(CCN(c3ccc(C(=O)N4CCC(CN5CCN(c6cccc(NC7CCC(=O)NC7=O)c6)CC5)CC4)nn3)CC2)CN1c1ccc(C#N)c(Cl)c1 (stereo partly drawn) [Example 13, 2-Chloro-4-((3S)-8-(6-(4-((4-(3-((2,6-dioxopiperidin-3-yl)amino)phenyl)piperazin-1-yl)methyl)piperidine-1-carbonyl)pyridazin-3-yl)-3-methyl-2,8-diazaspiro[4.5]decan-2-yl)benzonitrile]",0.5 nM,96%,106 nM,56%,–,–,–,–,–,–
"C[C@H]1CC2(CCN(c3ccc(C(=O)N4CCC(N5CCN(c6cccc(NC7CCC(=O)NC7=O)c6)CC5)CC4)cc3)CC2)CN1c1ccc(C#N)c(Cl)c1 (stereo partly drawn) [Example 10, 2-Chloro-4-((3S)-8-(4-(4-(4-(3-((2,6-dioxopiperidin-3-yl)amino)phenyl)piperazin-1-yl)piperidine-1-carbonyl)phenyl)-3-methyl-2,8-diazaspiro[4.5]decan-2-yl)benzonitrile]",2.5 nM,97%,93 nM,70%,–,–,–,–,–,–
"C[C@H]1CC2(CCN(C(=O)c3ccc(SC4CCN(C5CN(c6ccc(C(=O)NC7CCC(=O)NC7=O)c(F)c6)C5)CC4)nc3)CC2)CN1c1ccc(C#N)c(Cl)c1 (stereo partly drawn) [Example 5, 4-(3-(4-((5-((S)-2-(3-Chloro-4-cyanophenyl)-3-methyl-2,8-diazaspiro[4.5]decane-8-carbonyl)pyridin-2-yl)thio)piperidin-1-yl)azetidin-1-yl)-N-(2,6-dioxopiperidin-3-yl)-2-fluorobenzamide]",–,86%,189 nM,72%,–,–,–,–,–,30.5 nM
"C[C@H]1CC2(CCN(c3ccc(C(=O)N4CCC(CN5CCN(c6ccc(C(=O)NC7CCC(=O)NC7=O)nc6)CC5)CC4)cc3)CC2)CN1c1ccc(C#N)c(Cl)c1 (stereo partly drawn) [Example 4, 5-(4-((1-(4-((S)-2-(3-Chloro-4-cyanophenyl)-3-methyl-2,8-diazaspiro[4.5]decan-8-yl)benzoyl)piperidin-4-yl)methyl)piperazin-1-yl)-N-(2,6-dioxopiperidin-3-yl)picolinamide]",20.2 nM,92%,135 nM,58%,–,–,–,–,–,–

# From patent US20250129074A1, “CHIMERIC COMPOUND FOR TARGETED DEGRADATION OF ANDROGEN RECEPTOR PROTEIN, PREPARATION METHOD THEREFOR, AND MEDICAL USE THEREOF” (Jiangsu Hengrui Pharmaceuticals Co., Ltd., priority 2021, published 2025)
